Tested on: HeLa cells
Test: NAD(P)H live-cell microscopy
Type: cell-based
Conditions: 5 mM, FIG. 13
Protocol: All values were referenced to the value obtained before substance addition.
NAD(P)H live-cell microscopy on HeLa cells was performed as previously described. Briefly, NAD(P)H fluorescence intensity time series were performed on a ZEISS LSM880 inverted confocal equipped with an incubation chamber to maintain 37 Celsius degree and 5% of CO2. […] In order to maximize the transmission efficiency of the system in excitation and detection and reduce the aberrations due to the watery environment, a ZEISS Plan C-ApoChromat 40×/1.2 Water lens with depth compensating correction collar was used. […] The sampling factor in XY (pixel size) of each image was equal to 208 nm, which lead to a final resolution of approximately 600 nm. For each image a volume of 5 μm around the specimen central plane was taken by acquiring 3 planes separated by a Z-step of 2.5 μm.
Time series measurements were obtained with 5 min time resolution. Fluorescence intensity levels were extracted using FIJI Image Analysis Freeware

O=C(O)CO [GA, 2-hydroxyethanoic acid]
mitochondrial NAD(P)H production: increases mitochondrial NAD(P)H production

Source: patent publication US20230277491A1, “PHARMACEUTICAL COMBINATION COMPRISING GLYCOLIC ACID AND L-ALANINE” (priority 2020, published 2023)
